Measured values as given in the CheMixHub viscosity set.
± gives the uncertainty stated by the source.

Assay: xn = mol fraction of the nth substance listed

O=S(=O)([N-]S(=O)(=O)C(F)(F)F)C(F)(F)F.On1cc[n+](O)c1 + CCCO
100 kPa
Details	viscosity [mPa·s]
293.15 K, x1 = 0.3992	31.05 ± 2.5
293.15 K, x1 = 0.5999	65.75 ± 5.3
303.15 K, x1 = 0.7996	77.95 ± 6.3
313.15 K, x1 = 0.4985	20.85 ± 1.7

CC(=O)c1ccc(C)cc1 + CCNc1ccccc1
303.15 K, 100 kPa
Details	viscosity [mPa·s]
x2 = 0.0838	1.587 ± 0.021
x2 = 0.1427	1.592 ± 0.021
x2 = 0.2179	1.601 ± 0.021
x2 = 0.2904	1.608 ± 0.021
x2 = 0.3608	1.616 ± 0.021
x2 = 0.4284	1.625 ± 0.021
x2 = 0.4942	1.635 ± 0.021
x2 = 0.5577	1.645 ± 0.021
x2 = 0.6194	1.656 ± 0.021
x2 = 0.6889	1.67 ± 0.021
x2 = 0.7467	1.683 ± 0.022
x2 = 0.8128	1.697 ± 0.022
x2 = 0.9072	1.718 ± 0.022

CCCCC(CC)COP(=O)(O)OCC(CC)CCCC (stereo not drawn) + CCO
303.15 K, 101 kPa
Details	viscosity [mPa·s]
x1 = 0.0484	1.909 ± 0.045
x1 = 0.086	2.633 ± 0.061
x1 = 0.1497	3.874 ± 0.088
x1 = 0.246	5.98 ± 0.13
x1 = 0.3456	8.285 ± 0.18
x1 = 0.4132	9.819 ± 0.21
x1 = 0.5228	12.07 ± 0.26
x1 = 0.6182	13.82 ± 0.3
x1 = 0.7125	15.38 ± 0.34
x1 = 0.8312	17.13 ± 0.38
x1 = 0.9224	18.43 ± 0.42

C[N+](=O)[O-] + CCO
viscosity [mPa·s]
Details	293.15 K	298.15 K	303.15 K	313.15 K
101 kPa, x1 = 0.1074	–	0.9963 ± 0.1	–	–
101 kPa, x1 = 0.2135	–	0.9148 ± 0.092	–	–
101 kPa, x1 = 0.3174	–	0.84 ± 0.085	–	–
101 kPa, x1 = 0.4199	–	0.777 ± 0.078	–	–
101 kPa, x1 = 0.5202	–	0.7236 ± 0.073	–	–
101 kPa, x1 = 0.6192	–	0.6847 ± 0.069	–	–
101 kPa, x1 = 0.7167	–	0.6557 ± 0.066	–	–
101 kPa, x1 = 0.8126	–	0.6418 ± 0.065	–	–
101 kPa, x1 = 0.9071	–	0.637 ± 0.064	–	–
101.33 kPa, x2 = 0.0501	0.625 ± 0.006	–	0.553 ± 0.005	0.501 ± 0.005
101.33 kPa, x2 = 0.1001	0.609 ± 0.006	–	0.538 ± 0.005	0.486 ± 0.005
101.33 kPa, x2 = 0.15	0.602 ± 0.006	–	0.53 ± 0.005	0.477 ± 0.005
101.33 kPa, x2 = 0.2	0.601 ± 0.006	–	0.527 ± 0.005	0.472 ± 0.005
101.33 kPa, x2 = 0.2501	0.604 ± 0.006	–	0.527 ± 0.005	0.471 ± 0.005
101.33 kPa, x2 = 0.3001	0.612 ± 0.006	–	0.531 ± 0.005	0.472 ± 0.005
101.33 kPa, x2 = 0.3502	0.622 ± 0.006	–	0.538 ± 0.005	0.476 ± 0.005
101.33 kPa, x2 = 0.4008	0.636 ± 0.006	–	0.547 ± 0.005	0.482 ± 0.005
101.33 kPa, x2 = 0.4501	0.653 ± 0.006	–	0.561 ± 0.005	0.491 ± 0.005
101.33 kPa, x2 = 0.5001	0.672 ± 0.006	–	0.577 ± 0.005	0.502 ± 0.005
101.33 kPa, x2 = 0.55	0.695 ± 0.006	–	0.594 ± 0.006	0.516 ± 0.005
101.33 kPa, x2 = 0.6	0.72 ± 0.007	–	0.612 ± 0.006	0.531 ± 0.005
101.33 kPa, x2 = 0.65	0.75 ± 0.007	–	0.633 ± 0.006	0.547 ± 0.005
101.33 kPa, x2 = 0.7	0.785 ± 0.007	–	0.665 ± 0.006	0.569 ± 0.005
101.33 kPa, x2 = 0.75	0.825 ± 0.008	–	0.698 ± 0.007	0.595 ± 0.006
101.33 kPa, x2 = 0.8	0.872 ± 0.008	–	0.732 ± 0.007	0.625 ± 0.006
101.33 kPa, x2 = 0.85	0.936 ± 0.009	–	0.782 ± 0.007	0.662 ± 0.006
101.33 kPa, x2 = 0.9	1.006 ± 0.009	–	0.835 ± 0.008	0.705 ± 0.007
101.33 kPa, x2 = 0.95	1.086 ± 0.01	–	0.901 ± 0.008	0.759 ± 0.007

C[N+](=O)[O-] + CCOC(C)=O
298.15 K, 101 kPa
Details	viscosity [mPa·s]
x1 = 0.1688	0.4555 ± 0.046
x1 = 0.3141	0.4808 ± 0.049
x1 = 0.4395	0.5046 ± 0.051
x1 = 0.55	0.526 ± 0.053
x1 = 0.6469	0.5465 ± 0.055
x1 = 0.733	0.5651 ± 0.057
x1 = 0.8102	0.5828 ± 0.059
x1 = 0.8801	0.5995 ± 0.06
x1 = 0.9429	0.6154 ± 0.062

CC(=O)c1ccc(C)cc1 + CN(C)c1ccccc1
viscosity [mPa·s], 101 kPa
Details	303.15 K	308.15 K
x2 = 0.0481	1.541 ± 0.02	1.493 ± 0.02
x2 = 0.0942	1.512 ± 0.02	1.462 ± 0.019
x2 = 0.1558	1.478 ± 0.02	1.428 ± 0.019
x2 = 0.2311	1.442 ± 0.019	1.39 ± 0.019
x2 = 0.2972	1.411 ± 0.019	1.359 ± 0.018
x2 = 0.3584	1.382 ± 0.019	1.33 ± 0.018
x2 = 0.4254	1.356 ± 0.018	1.303 ± 0.018
x2 = 0.4949	1.331 ± 0.018	1.275 ± 0.018
x2 = 0.5492	1.31 ± 0.018	1.252 ± 0.017
x2 = 0.5964	1.295 ± 0.018	1.234 ± 0.017
x2 = 0.6887	1.264 ± 0.018	1.204 ± 0.017
x2 = 0.7635	1.24 ± 0.017	1.181 ± 0.017
x2 = 0.8596	1.213 ± 0.017	1.149 ± 0.017

CC(=O)c1ccc(C)cc1 + CNC(C)=O
308.15 K, 101 kPa
Details	viscosity [mPa·s]
x1 = 0.0617	3.091 ± 0.035
x1 = 0.1321	2.867 ± 0.033
x1 = 0.2004	2.666 ± 0.031
x1 = 0.2836	2.469 ± 0.029
x1 = 0.3629	2.286 ± 0.027
x1 = 0.4632	2.08 ± 0.025
x1 = 0.5582	1.927 ± 0.024
x1 = 0.689	1.722 ± 0.022
x1 = 0.8305	1.588 ± 0.021

[Br-].[Br-].[Br-].[Sb+3] + CNc1ccccc1
323.15 K, 101 kPa
Details	viscosity [mPa·s]
x1 = 0.25	21.03 ± 0.81
x1 = 0.333	107.7 ± 3.6
x1 = 0.4	507 ± 14
x1 = 0.45	1423 ± 33
x1 = 0.5	2867 ± 58
x1 = 0.53	3472 ± 68
x1 = 0.55	3692 ± 69
x1 = 0.57	3331 ± 63
x1 = 0.6	2686 ± 50
x1 = 0.65	1275 ± 24
